Like-named read-outs stand apart in the source and are kept apart here.
Legend:
[1] = molecular target: T1, BRD4-BD1 (Homo sapiens, UniProt O60885); assay: BRD4 AlphaScreen determination (BD1); format: binding
T1 construct: purchased ReactionBiologyCorp; (RBC)
Experimental: (1) 1× Assay buffer was prepared according to the kit requirements of ReactionBiologyCorp. (RBC). (2) Compound concentration gradient preparation: the test compounds were tested at final concentrations starting at 10 μM, with 10 concentrations at 3-fold dilution and single well test was set for each concentration. The positive control compound(+)-JQ-1 was tested at final concentrations starting at 1 μM, with 10 concentrations at 3-fold dilution, and duplicated well test was set for each concentration. The solution was gradient diluted to the corresponding 1000-fold final concentration in a 384-well Source plate, and then 20 nL of the solution was transferred to the 384-well reaction plate with Echo550 to be measured. 20 nL of 100% DMSO was transferred to the Max well, and the highest concentration of the positive compounds were transferred to the Min wells. […] (6) 5 μL of 4× peptide solution was added to each well of the reaction plate, centrifuged at 1000 rpm for 1 min. (7) 10 μL of the assay solution was added, centrifuged at 1000 rpm for 60 seconds, the solution was mixed with gentle shaking, and incubated at room temperature for 60 minutes. (8) Reading with EnVision. (9) The IC50 values of the compounds for protein binding inhibition was obtained by fitting the dose-effect curve with the analytical software GraphPad Prism 5. (See Table 1 for specific values)

[2] = test system: IEC6; assay: Proliferation inhibition of IEC6 cells; format: cell-based; details: Rattus norvegicus, IEC-6; IEC6 cell line; read-out: proliferation inhibitory activity IC50
Experimental: The proliferation inhibitory activity of some of the embodiment compounds against different cell lines such as LNCAP (+R1881), SKM-1, 22RV1, DU145, MOLM13, MDA-PCA-2b, KASUMI 1, THP-1, KG-1, IEC6, H1299, etc., was tested using similar methods in test embodiment 2 and in the literature.

[3] = molecular target: T2, CYP3A4 (Homo sapiens, UniProt P08684); assay: Direct inhibition test (DI test) in human liver microsomes, CYP3A4; format: in vitro ADME; details: read-out: inhibitory IC50 on CYP 3A4
T2 construct: human liver microsomes (final concentration was 0.2 mg/mL); from tissue; host or cells: human liver microsomes
T2 sequence (P08684 whole entry): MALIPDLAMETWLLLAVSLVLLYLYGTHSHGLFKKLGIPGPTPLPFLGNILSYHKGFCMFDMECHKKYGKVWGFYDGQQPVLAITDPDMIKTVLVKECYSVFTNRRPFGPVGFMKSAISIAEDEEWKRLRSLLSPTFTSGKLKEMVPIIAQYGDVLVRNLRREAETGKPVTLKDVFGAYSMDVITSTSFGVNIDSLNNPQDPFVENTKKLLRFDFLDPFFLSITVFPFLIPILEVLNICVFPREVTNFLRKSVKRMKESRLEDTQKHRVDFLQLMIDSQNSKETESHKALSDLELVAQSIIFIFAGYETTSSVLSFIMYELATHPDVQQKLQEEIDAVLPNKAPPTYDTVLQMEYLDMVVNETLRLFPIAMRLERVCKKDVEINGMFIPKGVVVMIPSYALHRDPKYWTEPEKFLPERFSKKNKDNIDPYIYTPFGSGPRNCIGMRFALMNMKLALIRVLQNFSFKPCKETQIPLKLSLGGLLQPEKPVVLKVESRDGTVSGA
Experimental: (§1) (2) Direct inhibition test (DI test): 1004 of human liver microsomes (final concentration was 0.2 mg/mL) system was subjected to inhibition incubation directly, the system contains NADPH (final concentration was 1 mM), 10 μM compound, positive inhibitor cocktail (ketoconazole 10 μM, quinidine 10 μM, sulfapyrazole 100 μM, a-naphthoflavone 10 μM, tranylcypromine […]), negative control (0.1% DMSO BPS) and mixed probe substrate (midazolam 1004, testosterone 10004, dextromethorphan 10 μM, diclofenac 20 μM, phenacetin 100 μM, mephenytoin 100 μM), the reaction was terminated after incubation for 20 min. The relative enzyme activity was calculated by measuring the relative production of metabolites.

[4] = molecular target: T3, CYP2C19 (Homo sapiens, UniProt P33261); assay: Direct inhibition test (DI test) in human liver microsomes, CYP2C19; format: in vitro ADME; details: read-out: inhibitory IC50 on CYP 2C19
T3 construct: human liver microsomes (final concentration was 0.2 mg/mL); from tissue; host or cells: human liver microsomes
T3 sequence (P33261 whole entry): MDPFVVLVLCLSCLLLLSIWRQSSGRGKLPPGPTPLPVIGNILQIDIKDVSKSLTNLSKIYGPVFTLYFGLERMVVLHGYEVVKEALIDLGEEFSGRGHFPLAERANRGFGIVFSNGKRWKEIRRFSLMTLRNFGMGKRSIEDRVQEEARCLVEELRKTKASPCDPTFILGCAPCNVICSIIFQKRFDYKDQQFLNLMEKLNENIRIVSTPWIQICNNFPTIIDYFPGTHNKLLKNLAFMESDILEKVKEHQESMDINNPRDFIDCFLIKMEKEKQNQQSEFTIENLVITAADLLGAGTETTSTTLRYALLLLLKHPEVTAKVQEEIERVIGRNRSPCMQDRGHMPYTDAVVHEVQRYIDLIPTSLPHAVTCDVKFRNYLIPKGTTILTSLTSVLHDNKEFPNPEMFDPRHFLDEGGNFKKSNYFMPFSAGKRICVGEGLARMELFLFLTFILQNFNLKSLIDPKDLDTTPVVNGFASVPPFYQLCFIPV
Experimental: as §1

[5] = test system: MV4-11 cells; assay: Inhibition of proliferation of MV4-11 cells (CellTiter-Glo); format: cell-based; details: Homo sapiens, 72 h
Experimental: Specific experimental steps: 1) Day 0: 96 inoculated cells were digested with trypsin and suspended in cell culture medium, the cell density was detected by an automatic cell counter and the cells were diluted with the culture medium to a suitable density, 100 μL of cell suspension was added to the 96-well plate, and the cell-free medium was used as a control well, and the wells were incubated in a 37° C., 5% CO2 cell incubator overnight; 2) Day 1: A total of 8 concentrations of the compound to be tested in the drug-treated cells were tested at 3-fold dilution, 10 μM was the starting assay concentration of the compound to be tested. Specific steps: 200× compound mother liquor was prepared, the compound was diluted with culture medium to a final concentration of […], that is, 3 μL of 200× compound was added to 197 μL of culture medium, 50 μL diluted compound was added to each well of the 96-well plate, and placed at 37° C., 5% CO2 cell culture incubator for 72 h; 3) Day 4: Cell viability detection: 96-well cell plate was first equilibrated to room temperature, 40 μL of CellTiter-Glo® reagent was added to each well, mixed on a shaker for 2 minutes to fully lyse the cells, incubated at room temperature for 10 minutes to stabilize the luminescence signal, and the luminescence value was read by the Envision microplate reader; 4) data processing was performed by GraphPad Prism 5.0 software to analyze the data, and nonlinear S-curve regression was used to fit the data to obtain a dose-effect curve, and from which the ICso value was calculated. Inhibition rate %=(DMSO treated cell wells−compound treated cell wells)/(DMSO treated cell wells−cell free medium wells)×100. The ICso value was obtained by the four-parameter regression method using the random software in the microplate reader. (See Table 2 for specific values)

[6] = molecular target: T4, CYP2C8 (Homo sapiens, UniProt P10632); assay: Direct inhibition test (DI test) in human liver microsomes, CYP2C8; format: in vitro ADME; details: read-out: inhibitory IC50 on CYP 2C8
T4 sequence (P10632 1-490): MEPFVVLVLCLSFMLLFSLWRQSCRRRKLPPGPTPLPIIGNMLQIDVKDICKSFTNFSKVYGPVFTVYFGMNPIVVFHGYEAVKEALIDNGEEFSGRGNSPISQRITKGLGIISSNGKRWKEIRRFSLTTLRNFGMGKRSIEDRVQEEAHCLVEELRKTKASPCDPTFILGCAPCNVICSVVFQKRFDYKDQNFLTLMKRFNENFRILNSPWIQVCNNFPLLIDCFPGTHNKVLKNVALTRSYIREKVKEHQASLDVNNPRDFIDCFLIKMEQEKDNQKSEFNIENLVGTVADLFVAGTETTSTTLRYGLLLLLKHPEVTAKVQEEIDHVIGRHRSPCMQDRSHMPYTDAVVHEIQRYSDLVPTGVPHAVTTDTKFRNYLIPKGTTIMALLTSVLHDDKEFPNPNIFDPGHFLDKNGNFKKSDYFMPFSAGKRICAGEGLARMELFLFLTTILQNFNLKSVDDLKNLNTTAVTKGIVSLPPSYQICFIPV
Experimental: as §1

Row | Structure (SMILES) | IC50 ([1]; AlphaScreen, protein binding inhibition, read-out: BRD4-BD1 IC50) | IC50 [2] | IC50 [3] | IC50 [4] | IC50 [5] | IC50 at 20 min [6] | IC50 [1]
1 | Cc1cc(F)cc(C)c1Oc1ccc(C(C)(C)O)cc1-c1cn(C)c(=O)c2cc(C(=O)NC3CC(F)(F)C3)[nH]c12 [Embodiment 18, N-(3,3-difluorocyclobutyl)-7-(2-(4-fluoro-2,6-dimethylphenoxy)-5-(2-hydroxyprop-2-yl)phenyl)-5-methyl-4-oxo-4,5-dihydro-1H-pyrrolo[3,2-c] pyridine-2-amide] | 117 nM | > 1000 nM | > 15000 nM | > 15000 nM | 10.6 nM | > 15000 nM | –
2 | CCNC(=O)c1cc2c(=O)n(C)cc(-c3cc(C(C)(C)O)ccc3Oc3c(C)cc(F)cc3C)c2[nH]1 [compound 1, reference compound] | – | > 1000 nM | > 15000 nM | > 15000 nM | 2.3 nM | > 15000 nM | 40 nM

— US12459939B2 (SHANGHAI RINGENE BIOPHARMA CO., LTD., priority 2019, dated 2025)
